This note sets out measurements from US20190369111A1, “MOLECULAR KINETICS EVALUATION METHOD AND SCREENING METHOD” (Tokyo University of Science Foundation, priority 2016, published 2019).

In the experiment the target is T1, MDM2 protein (Mus musculus, UniProt P23804).
T1 construct: administered intraperitoneally to C57BL/6J wild-type mice; from tissue; host or cells: C57BL/6J wild-type mice: liver, kidneys, spleen, heart
The experiment can be described thus: Degradation of MDM2 protein in each tissue of mouse after administration, Western blot analysis. It counts as in vivo. The settings on record: 48 hours after administration. The procedure: TIBC-CANDDY_MLN was dissolved in DMSO immediately before administration, and then dissolved in corn oil (Code No. 25606-55, Nacalai Tesque) so that the concentration of DMSO was 10 vol %, and then a dose of 50 mg/kg body weight or 100 mg/kg body weight was administered intraperitoneally to C57BL/6J wild-type mice (7 to 8 weeks old, male) (CLEA Japan, Inc.) (n=3). As a control, an injection carrier (corn oil containing 10 vol % DMSO) was used. The mice were kept under an environment of ad libitum access to food and water. The mice were dissected under deep anesthesia by Somnopentyl (Kyoritsu Seiyaku Corporation) 48 hours after administration. Abdominal section was performed, and then the liver, kidneys, spleen, and heart were sequentially extracted and flash frozen in liquid nitrogen. Each tissue frozen in liquid nitrogen was stored in a deep freezer at −80° C.
The frozen tissues (spleen: 0.02 g, other tissues: 0.04 g) were each frozen and triturated, and then 1×TKM tissue lysis buffer (50 mM triethanolamine (pH 7.8), 50 mM KCl, 5 mM MgCl2, 0.25 M sucrose, 1 mM PMSF, protein inhibitors cocktail-EDTA free (Code No. 03969-21, Nacalai Tesque), 1 mM DTT, and 5 μL/mL recombinant RNase inhibitor (40 U/μL, Cat No. 2313A, Lot No. K8402DA, TAKARA Bio)) were added in an amount of 490 μL for the spleen and 980 μL for the others, and dissolved by rotation for 15 minutes (1 rpm, 25° C.). Then, the resultant product was subjected to centrifugation (at 3000 rpm×15 minutes, 4° C.), and the supernatants (each tissue extract) was collected. The concentration of proteins in each tissue extract was quantified with a spectrophotometer using each tissue extract that had been diluted 20 times using DEPC-treated water.
Each tissue extract collected was subjected to Western blot analysis. An SDS-PAGE gel was prepared using TGX™ FastCast™ Acrylamide Kit, 12% (Bio-Rad). Electrophoresis samples were prepared in a 6×SDS-PAGE sample buffer (62.5 mM Tris-HCl pH 6.8, 2% SDS, 5% 2-mercaptoethanol, 10% glycerol, 0.25% BPB), and placed on a heat block at 95° C. for 5 minutes. The electrophoresis samples prepared were applied at 50 μg/well for detecting GAPDH, and at 100 μg/well for other detection. […]
After electrophoresis, proteins were transferred to a PVDF membrane (Immobion™-P, Millipore) under conditions of 100 V and 1.5 hours using a tank-type blotting device and a transfer buffer (25 mM Tris-HCl, 195 mM glycine, 0.01% SDS, 15% methanol). […] Subsequently, the membrane was treated with a chemiluminescence reagent Immobilon™ Western (Millipore), and then chemiluminescence was detected using a lumino image analyzer LAS-3000 (FUJIFILM Corporation). Detected bands were quantified with an image processing software ImageJ (NIH).
On the technique in general: Immunoblotting shows a protein as a band on a membrane.

T1 sequence (P23804 whole entry): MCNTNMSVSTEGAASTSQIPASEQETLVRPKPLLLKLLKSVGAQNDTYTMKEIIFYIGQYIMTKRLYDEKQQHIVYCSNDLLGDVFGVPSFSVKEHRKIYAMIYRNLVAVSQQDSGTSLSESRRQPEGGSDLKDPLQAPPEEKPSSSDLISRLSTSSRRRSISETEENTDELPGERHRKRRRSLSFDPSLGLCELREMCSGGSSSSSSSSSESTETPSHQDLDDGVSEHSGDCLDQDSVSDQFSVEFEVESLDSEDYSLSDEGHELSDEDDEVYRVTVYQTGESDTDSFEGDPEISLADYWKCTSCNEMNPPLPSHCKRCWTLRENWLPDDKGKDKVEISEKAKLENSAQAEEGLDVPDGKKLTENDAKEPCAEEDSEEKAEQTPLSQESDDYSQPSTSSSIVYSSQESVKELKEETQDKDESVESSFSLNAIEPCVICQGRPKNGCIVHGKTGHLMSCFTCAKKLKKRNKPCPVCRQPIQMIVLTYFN

Turning to `CC(C)C[C@H](NC(=O)CNC(=O)c1cc(Cl)ccc1Cl)C(=O)NCCCCCCC(=O)Nc1ccc(C(=O)/C=C/c2ccc(I)cc2)cc1` [TIBC-CANDDY_MLN], the “amount of MDM2 protein in heart” value (intraperitoneal 50 or 100 mg/kg body weight, heart) was “reduced in a concentration dependent manner”. The “amount of MDM2 protein in kidneys” value (intraperitoneal 50 or 100 mg/kg body weight, kidneys) is given as “reduction of the target was not found”. The “amount of MDM2 protein in spleen” value (intraperitoneal 50 or 100 mg/kg body weight, spleen) is listed as “reduced in a concentration dependent manner”. The “amount of MDM2 protein in liver” value (intraperitoneal, only at a dose of 100 mg/kg body weight, liver) is listed as “reduced slightly”.
